Measured values reported in patent US11945826B2, “Hydroxypyridoxazepines as NRF2 activators” (GLAXOSMITHKLINE INTELLECTUAL PROPERTY DEVELOPMENT LIMITED, priority 2019, dated 2024).
Like-named read-outs stand apart in the source and are kept apart here.

What was measured:
[1] = Mouse Plasma Protein Binding Study; format: in vitro ADME; conditions: heparinized mouse plasma, pH 7.5, ultracentrifugation 37° C. 3 hours, read-out: Plasma Protein Binding, % bound (converted)
Method: Stock solutions of the compound of Example 1, herein, and Compound A (the compound of Example 1 of WO 2018/109646), were prepared in dimethyl sulfoxide (DMSO) at a concentration of 1 mg/mL. Incubation mixtures were prepared by diluting the stock solution into heparinized mouse plasma to a concentration of 2000 ng/mL. The final concentration of DMSO was 0.2%. The thawed plasma was centrifuged to remove any debris. If necessary, the pH of the plasma sample was adjusted to approximately 7.5 with 1% aqueous phosphoric acid prior to use. Incubation mixtures were prepared. Triplicate 10 μL aliquots of each incubation mixture were collected and analyzed to verify initial compound concentration. Four aliquots of each incubation mixture were placed into separate polyallomer ultracentrifuge tubes. The incubation mixtures were centrifuged in a Beckman Type 42.2 Ti rotor at 42,000 rpm (214,361×g) at 37° C. for 3 hours with maximum acceleration and deceleration. […] The samples were quick frozen on solid carbon dioxide and stored at approximately −80° C. until analyzed by liquid chromatography/tandem mass spectroscopy (LC/MS/MS) for test compound concentration. Total recovery of compound from the ultracentrifugation tubes was calculated with the following formula: […]
Percent unbound (Fu) by ultracentrifugation was calculated with the following formula: […]

[2] = tested on: Nrf2 (NQO1 activity in BEAS-2B cells); assay: BEAS-2B NQO1 MTT Assay; format: cell-based; conditions: Homo sapiens, NQO1 specific activity induction
Excerpt: NAD(P)H:quinone oxidoreductase 1 (NQO1), also called DT diaphorase, is a homodimeric FAD-containing enzyme that catalyzes obligatory NAD(P)H-dependent two-electron reductions of quinones and protects cells against the toxic and neoplastic effects of free radicals and reactive oxygen species arising from one-electron reductions. The transcription of NQO1 is finely regulated by Nrf2, and thus NQO1 activity is a good marker for Nrf2 activation. On day one, frozen BEAS-2B cells (ATCC) were thawed in a water bath, counted, and re-suspended at a concentration of 250,000 cells/mL. Fifty microliters of cells were plated in 384 well black clear-bottomed plates. Plates were incubated at 37° C., 5% CO2 overnight. On day two, plates were centrifuged and 50 nL of compound or controls were added to the cells. Plates were then incubated at 37° C., 5% CO2 for 48 hours. On day four, medium was aspirated from the plate and crude cell lysates were made by adding 13 μL of 1× Cell Signalling Technologies lysis buffer with 1 Complete, Mini, EDTA-free Protease Inhibitor Tablet (Roche) for each 10 mL of lysis buffer. After lysis plates were incubated for 20 minutes at room temperature. Two microliters of lysate were removed for use in Cell Titer Glo assay (Promega) and MTT cocktail was prepared (Prochaska et. al. 1998) for measurement of NQO1 activity. Fifty microliters of MTT cocktail was added to each well, plate was centrifuged, and analyzed on an Envision plate reader (Perkin Elmer) using Absorbance 570 nm label for 30 minutes. Product formation was measured kinetically and the pEC50 of NQO1 specific activity induction was calculated by plotting the change in absorbance (Delta OD/min) versus the log of compound concentration followed by 3-parameter fitting.
EC50s<1 nM (+++++), EC50s 1 nM-10 nM (++++), EC50s 10 nM-100 nM (+++), EC50s 100 nM-1 μM (++), EC50s 1 μM-10 μM (+).

Rat PK Study = format: in vivo; conditions: plasma, nominal 1 mg/kg 30-minute intravenous infusion; for MRT: read-out: Rat Pharmacokinetics MRT; for clearance: read-out: Rat Pharmacokinetics Total Clearance
Method: All studies were conducted after review by the GSK Institutional Animal Care and Use Committee and in accordance with the GSK Policy on the Care, Welfare and Treatment of Laboratory Animals. This study was conducted with a crossover design on two study days with a one-day recovery period between each study day. At least three days prior to the start of the study, three rats received surgically implanted femoral vein, femoral artery, and gastric catheters for infusion of test molecules, blood sampling, and oral dose administration, respectively. Dose solutions were filtered prior to administration and the actual dosage administered to the animals was quantified. All PK parameters were calculated based on the actual dosage administered to each animal. Urine was collected from 0-24 h following iv administration from each animal for determination of renal clearance.
The compounds used in this study were the compound of Example 1, herein, and Compound A (the compound of Example 1 of WO 2018/109646).
The dose for intravenous administration was prepared in 20% Cavitron™ and 5% DMSO. The intravenous dose formulation was filtered through a 0.22-micron polytetrafluoroethylene (PTFE) filter prior to administration. The dose for oral solution administration was prepared in 6% Cavitron™ and 5% DMSO and was filtered through a 0.22-micron VWR PTFE filter prior to administration.
Each animal received a nominal dose of 1 mg/kg (4 mL/kg dose volume) as a 30-minute intravenous infusion on study day one. On study day two, each animal received a nominal dose of 2 mg/kg (16 mL/kg dose volume) as an oral gavage. Blood samples (approximately 0.11 mL each) were collected from the femoral artery catheter. […] Plasma was isolated from blood by centrifugation and a 30 μL aliquot was transferred to a non-heparinized tube, quick frozen on solid carbon dioxide and stored at approximately −80° C. until analyzed by liquid chromatography/tandem mass spectroscopy (LC/MS/MS) for test compound concentration.
Pharmacokinetic parameters for all in vivo PK studies were calculated using non-compartmental methods with Phoenix WinNonlin version 6.1.0 or 8.1.0. All parameters were calculated using actual blood sampling times and actual dosages for each animal. The extrapolated area under the curve (AUC0-inf) was determined using unweighted linear regression analysis of at least three log transformed concentrations visually assessed to be on the linear portion of the terminal elimination slope. Oral solution bioavailability was calculated in a non-crossover fashion using the mean intravenous dose and AUC0-inf values from the two intravenously dosed animals for the monkey PK study and in a crossover fashion for the rat PK study.

[3] = read-out: Nrf2 BEAS-2B NQO1 EC50

Row | fraction unbound at 3 h, 2000 ng/mL [1] | MRT (Rat PK Study) [h] | clearance (Rat PK Study) [mL/min/kg] | Structure (SMILES) | EC50 [2, 3] [nM] | EC50 ([2]; 48 hours, read-out: EC50) [nM]
1 | 0.003 | 4 | 1.9 | CC[C@@H]1CN(Cc2cc([C@@H](CC(=O)O)c3ccc4c(nnn4C)c3C)ccc2C)Cc2ncccc2O1 [Compound A, reference compound] | 16 | 
2 | 0.084 | 6.5 | 5.2 | CC[C@@H]1CN(Cc2cc([C@@H](CC(=O)O)c3ccc4c(nnn4C)c3C)ccc2C)Cc2nc(O)ccc2O1 [Example 1, (R)-3-(1,4-dimethyl-1H-benzo[d][1,2,3]triazol-5-yl)-3-(3-(((R)-2-ethyl-7-hydroxy-2,3-dihydropyrido[2,3-f][1,4]oxazepin-4(5H)-yl)methyl)-4-methylphenyl)propanoic acid] | 13 | 10 to 100
